Results reported in PubChem BioAssay (NCI).
Where “and” joins values, the source holds several entries; their conditions need not be identical. Identical values can stand only once.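 In this assay, cells in 96-well plates receive the compound at five concentrations for 48 hours. Endpoints are linearly interpolated between the surrounding concentrations. Abbreviation: GI50, concentration required for 50% inhibition of growth. TGI denotes the concentration required for complete inhibition of growth.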

Experiments:
Assay in all cases: growth of human tumour cells (NCI), 48 h
UO-31 renal = test system: UO-31 renal
SNB-75 CNS = test system: SNB-75 CNS
OVCAR-8 ovarian = test system: OVCAR-8 ovarian
OVCAR-3 ovarian = test system: OVCAR-3 ovarian
MDA-MB-231 breast = test system: MDA-MB-231 breast
SW-620 colon = test system: SW-620 colon
RPMI-8226 leukemia = test system: RPMI-8226 leukemia
SK-MEL-2 melanoma = test system: SK-MEL-2 melanoma
MOLT-4 leukemia = test system: MOLT-4 leukemia
SK-MEL-28 melanoma = test system: SK-MEL-28 melanoma

Compound | GI50 (UO-31 renal) | TGI (UO-31 renal) | GI50 (SNB-75 CNS) | TGI (SNB-75 CNS) | GI50 (OVCAR-8 ovarian) | TGI (OVCAR-8 ovarian) | GI50 (OVCAR-3 ovarian) | TGI (OVCAR-3 ovarian) | GI50 (MDA-MB-231 breast) | TGI (MDA-MB-231 breast) | GI50 (SW-620 colon) | TGI (SW-620 colon) | GI50 (RPMI-8226 leukemia) | TGI (RPMI-8226 leukemia) | GI50 (SK-MEL-2 melanoma) | TGI (SK-MEL-2 melanoma) | GI50 (MOLT-4 leukemia) | TGI (MOLT-4 leukemia) | GI50 (SK-MEL-28 melanoma) | TGI (SK-MEL-28 melanoma)
CCNC(=O)Oc1ccc(/C(=C(\C)c2ccc(Cl)cc2)c2ccc(OCCN(CC)CC)cc2)cc1 | 1.54 µM | 3.62 µM | 2.45 µM | 18.4 µM | 9.25 µM | 29.1 µM | 4.56 µM | 16.7 µM | 3.02 µM | 8.17 µM | 2.02 µM | 4.23 µM | 2.4 µM | 6 µM | 5.01 µM | 17.6 µM | 3.07 µM | 11 µM | 1.74 µM | 3.52 µM
COc1cc(-c2cc(-c3cccs3)c(C#N)c(N3CCOCC3)n2)cc(OC)c1OC | 5.12 µM | > 100 µM | 10 µM | > 63 µM | > 30.4 µM | > 100 µM | 14.9 µM | > 88.9 µM | 5.83 µM | > 100 µM | 1.95 µM | 4.62 µM | 4.07 µM | > 85.7 µM | 8.46 µM | > 100 µM | 4.09 µM | > 100 µM | 3.83 µM | 97.2 µM
CC(=O)OC1CC2C(C)(C)CCC[C@]2(C)C2=C1C(O)=C(C(C)C)C(=O)C2=O (some centres not stated) | 0.638 µM | 2.06 µM | 1.2 µM | 3.03 µM | 2.14 µM | 14.5 µM | 1.52 µM | 4.53 µM | 0.477 µM | 3.74 µM | 0.911 µM | 2.92 µM | 0.466 µM | 4.08 µM | 0.356 µM | 1.39 µM | 1.4 µM | > 30.8 µM | 0.68 µM | 2.16 µM
CS(=O)(=O)O[C@H]1C(=O)N(c2cc3c4ccccc4ccc3c3ccccc23)[C@@H]1c1ccccn1 | 0.76 µM | > 100 µM | 0.248 µM | > 100 µM | 0.712 µM | > 100 µM | 0.411 µM | 14.9 µM | 1.07 µM | 14 µM | 0.401 µM | > 100 µM | 0.467 µM | > 100 µM | 0.687 µM | > 100 µM | 2.22 µM | > 100 µM | 0.783 µM | > 100 µM
CC(=O)N(C)c1cc(NCc2ccccc2)ccc1OCc1ccccc1 | – | 28 µM | – | 41.5 µM | – | 32.7 µM | – | 32.8 µM | – | 30.2 µM | – | 56.5 µM | – | – | – | 30.8 µM | – | 50.4 µM | – | 35.4 µM
C=C1C[C@@H](O)[C@@H](Br)C(C)(C)[C@]12CCC(C)(Br)C(Cl)C2 (some centres not stated) | 25.4 µM | > 50 µM and 43.7 µM | 18.5 µM | > 50 µM and 34.6 µM | 21.7 µM | > 50 µM and 50.1 µM | 17.4 µM | > 50 µM and 33.7 µM | 16.8 µM | > 50 µM and 31.5 µM | 15.2 µM | > 50 µM and 33 µM | 12.6 µM | 50 µM and 33.3 µM | 16.5 µM | > 50 µM and 30.4 µM | 14.2 µM | > 50 µM and 34.5 µM | 18 µM | > 50 µM and 36.8 µM
CCC1(OC(=O)CNC)C(=O)OCc2c1cc1n(c2=O)Cc2cc3ccccc3nc2-1 (configuration not stated) | – | 0.0856 µM | – | 0.0842 µM | – | > 24.4 µM | – | 0.401 µM | – | 3.94 µM | – | 19.5 µM | – | 0.415 µM | – | 0.577 µM | – | 0.0631 µM | – | 2.7 µM
C=C[C@H]1CN2CCc3c([nH]c4c([C@@H]5CCCN5C)c(O)ccc34)[C@@H]2C[C@@H]1C[C@H]1c2[nH]c3ccccc3c2CCN1C | 1.42 µM and 1.44 µM | 2.8 µM [middle of 4 runs] | – | 2.47 µM | – | 3.3 µM and 2.96 µM | – | 2.8 µM and 3.16 µM | – | 3.16 µM and 3.46 µM | 2.48 µM | – | 1.94 µM | – | – | 3.37 µM | 0.412 µM | – | – | 2.98 µM and 3.3 µM
O=C(Nc1ccn(C2CC(I)C(COC(c3ccccc3)(c3ccccc3)c3ccccc3)O2)c(=O)n1)c1ccccc1 (configuration not stated) | – | 12.8 µM | – | 9.61 µM | – | 13.1 µM | – | 13 µM | – | 17.9 µM | – | 21.5 µM | – | 17 µM | – | – | – | 12.1 µM | – | 16.2 µM
O=c1c2ccccc2nc2n1CCc1c-2[nH]c2cc3c(cc12)OCO3 | – | > 25 µM | – | 22 µM | – | > 25 µM | – | – | – | > 25 µM | – | > 25 µM | – | > 25 µM | – | – | – | > 25 µM | – | > 25 µM
O=C(O)c1ccc(NCc2nc3ccccc3[nH]2)cc1 | > 100 µM | > 100 µM | > 100 µM | > 100 µM | > 100 µM | > 100 µM | > 100 µM | > 100 µM | > 100 µM | > 100 µM | > 100 µM | > 100 µM | > 100 µM | > 100 µM | > 100 µM | > 100 µM | > 100 µM | > 100 µM | > 100 µM | > 100 µM
O=C(Nc1ccc(Oc2ccc(NC(=O)Nc3ccccc3Cl)cc2)cc1)Nc1ccccc1Cl | 34.8 µM | > 95.8 µM | 12.2 µM | 37.3 µM | 6.83 µM | 23.6 µM | 11.3 µM | > 55 µM | 9.4 µM | 29.6 µM | 10.6 µM | > 100 µM | 1.19 µM | 15.7 µM | 8.17 µM | > 20.4 µM | 12.1 µM | 32.9 µM | 3.54 µM | > 100 µM
COc1ccc2nc3cc(Cl)ccc3c(NCCNCC(O)CO)c2c1 (configuration not stated) | 3.62 µM | 17.4 µM | 1.14 µM | 11.1 µM | 1.17 µM | 11.7 µM | 1.81 µM | 8.55 µM | 1.25 µM | 5.83 µM | 0.61 µM | 11.3 µM | 2.3 µM | 6.38 µM | 2.01 µM | 6.97 µM | 0.408 µM | 10.7 µM | 2.19 µM | 5.43 µM
Cc1cc(O[C@@H]2O[C@@H](C)[C@H](O)[C@@H](O)[C@H]2O)c2c3c(c(O[C@@H]4O[C@@H](C)[C@H](O)[C@@H](O)[C@H]4O)cc2c1)C(=O)c1c(O)cccc1C3=O | > 30 µM | > 30 µM | > 30 µM | > 30 µM | > 30 µM | > 30 µM | > 30 µM | > 30 µM | > 30 µM | > 30 µM | > 30 µM | > 30 µM | > 30 µM | > 30 µM | > 30 µM | > 30 µM | > 30 µM | > 30 µM | > 30 µM | > 30 µM
CCC(CC)c1cc(N[C@H]2CC[C@H](N)C2)n2nccc2n1 | 2.08 µM | 5.69 µM | 1.28 µM | 3.32 µM | 2.77 µM | > 100 µM | 1.01 µM | > 100 µM | 1.05 µM | > 100 µM | 0.626 µM | > 100 µM | 2.61 µM | > 100 µM | 1.64 µM | 3.64 µM | 1.36 µM | > 100 µM | 1.93 µM | 5.24 µM
COC1=CC(c2ccc[nH]2)=N/C1=C\c1[nH]c(C)c(C(=O)Oc2ccccc2)c1C | 0.15 µM | 0.35 µM | 0.274 µM | – | 0.288 µM | 1.45 µM | 0.212 µM | 1.18 µM | 0.0795 µM | 0.457 µM | – | – | 0.284 µM | 2.02 µM | 0.194 µM | 0.479 µM | – | – | 0.595 µM | 1.99 µM
O=c1c2cccc(F)c2sc2c(NCCCNCCO)nc3ccccc3c12 | 1.1 µM | 2.35 µM | 1.56 µM | 2.99 µM | – | – | 1.7 µM | 3.12 µM | 1.26 µM | 2.65 µM | 1.22 µM | 2.62 µM | 1.76 µM | 3.99 µM | 1.97 µM | 3.95 µM | 0.698 µM | 2.43 µM | 1.86 µM | 3.31 µM
COc1ccc(CN2C(=O)/C(=C\C(=O)c3ccc(OCCN4CCCC4)cc3)c3ccccc32)cc1 | 1.66 µM | 3.11 µM | 14.2 µM | 30.9 µM | 2.66 µM | 5.78 µM | 1.8 µM | 3.48 µM | 2.17 µM | 4.44 µM | – | – | 2.54 µM | 6.29 µM | 17.1 µM | 37.4 µM | 2.91 µM | 7.11 µM | 1.79 µM | 3.42 µM
COc1ccc(NC(=S)C#N)cc1 | – | – | – | > 100 µM | – | > 100 µM | – | > 100 µM | – | > 100 µM | – | > 100 µM | – | > 100 µM | – | > 100 µM | – | – | – | > 100 µM
Cc1cncc(-c2nc(NCCc3c[nH]c4ccccc34)c3ncn(C(C)C)c3n2)c1 | 3.06 µM | 12.9 µM | 4.87 µM | 21.1 µM | 4.6 µM | > 100 µM | 5.67 µM | 40.9 µM | 4.3 µM | 17.6 µM | 3.48 µM | 15.1 µM | 2.28 µM | 5.23 µM | 2.83 µM | 9.8 µM | – | – | 2.52 µM | 6.66 µM
Cc1cc2c(C(=O)NCC#N)cccc2n1-c1nc2c(c(NCc3ccccc3)n1)CCCC2 | 0.305 µM | 1.11 µM | 0.345 µM | 1.74 µM | 0.34 µM | 1.98 µM | 0.245 µM | 0.62 µM | 0.273 µM | 0.59 µM | 0.355 µM | 1.29 µM | – | – | 0.231 µM | 0.644 µM | 0.313 µM | 65.6 µM | 0.406 µM | 1.86 µM
